Here are results for 28 compounds from US8637485B2, “5′,-substituted adenosynes preparation thereof and use as inhibitors of S-adenosylmethionine decarboxylase” (Southern Research Institute, priority 2007, dated 2014).

For orientation: IC50 means the concentration at which inhibition is half-maximal.

Where a name gives a salt, the structure may show the parent alone. A value given as a limit tells only on which side of the number the result lay.

The first experiment has as its target T1, hAdoMetDC (Homo sapiens, UniProt P17707).
T1 construct: the enzyme undergoes autoprocessing to give the α and the β subunits; made in house; host or cells: E. coli JM109 (pQE30-based plasmid)
T1 sequence (P17707 1-67 limits assumed): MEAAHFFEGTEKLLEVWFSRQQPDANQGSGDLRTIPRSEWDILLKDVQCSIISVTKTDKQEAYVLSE
T1 sequence (P17707 68-328 limits assumed): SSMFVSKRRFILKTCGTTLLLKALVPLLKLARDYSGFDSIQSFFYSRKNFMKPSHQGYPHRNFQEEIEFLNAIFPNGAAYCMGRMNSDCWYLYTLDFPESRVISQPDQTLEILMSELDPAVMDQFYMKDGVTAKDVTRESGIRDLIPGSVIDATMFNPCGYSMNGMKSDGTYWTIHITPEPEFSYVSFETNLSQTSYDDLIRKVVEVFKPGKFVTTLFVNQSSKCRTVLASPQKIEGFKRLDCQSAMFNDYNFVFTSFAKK
Description: Assay of AdoMetDC activity (release of 14CO2 from S-adenosyl-L-[carboxy-14C]methionine) and determination of inhibitor IC50 values. To be noted: at 100 μM. It is filed as biochemical. On the procedure: Assay of AdoMetDC Activity and Determination of Inhibitor IC50 Values
(§1) AdoMetDC was assayed by measuring the release of ^14CO2 from S-adenosyl-L-[carboxy-^14C]methionine (Amersham Pharmacia Biotech, ˜60 mCi/mmol) (36). […] For determination of the abilities of compounds to inhibit AdoMetDC, the enzyme activity was determined in the presence of no inhibitor and at least 5 concentrations of each potential inhibitor. The IC50 values were determined from curve fitting to plots of the inhibitor concentration versus the % inhibition of AdoMetDC.
as §1
In the case of `CN(CCNC(=N)N)C[C@H]1O[C@@H](n2cnc3c(N)ncnc32)[C@H](O)[C@@H]1O` [Compound 18a, 5′-Deoxy 5′-[(2-guanidinoethyl)methylamino]adenosine], the inhibition at 100 µM is below 5%.
Take `CN(CCCCON)C[C@H]1O[C@@H](n2c(-c3ccccc3)nc3c(N)ncnc32)[C@H](O)[C@@H]1O.O=S(=O)(O)O` [Compound 9b, 5′-[(4-Aminooxybutyl)methylamino]-5′-deoxy-8-phenyladenosine sulfate (1.75:1 salt)]: the “inhibition” value is listed as below 5% inhibition at 100 μM.
In turn, `CNCCNC[C@H]1O[C@@H](n2c(C)nc3c(N)ncnc32)[C@H](O)[C@@H]1O` [Compound 15d, 5′-deoxy-8-methyl-5′-(2-methylaminoethylamino)adenosine] had an inhibition at 100 µM below 5%.
Consider `CN(CCCN)C[C@H]1O[C@@H](n2c(-c3ccccc3)nc3c(N)ncnc32)[C@H](O)[C@@H]1O.O=S(=O)(O)O` [Compound 14b, 5′-[(3-Aminopropyl)methylamino]-5′-deoxy-8-phenyladenosine sulfate (2.2:1 salt)], for which the “inhibition” value is given as below 5% inhibition at 100 μM.
Take `CNCCCNC[C@H]1O[C@@H](n2c(NC)nc3c(N)ncnc32)[C@H](O)[C@@H]1O.O=S(=O)(O)O` [Compound 15a, 5′-deoxy-8-(methylamino)-5′(3-methylaminopropylamino)adenosine sulfate (2.4:1 salt)]: the “inhibition” value was below 5% inhibition at 100 μM.
As to `CN(CCN)C[C@H]1O[C@@H](n2cnc3c(N)ncnc32)[C@H](O)[C@@H]1O` [Compound 14e, 5′-[(2-Aminoethyl)methylamino]-5′-deoxyadenosine], the inhibition at 100 µM was below 5%.
Regarding `Cc1nc2c(N)ncnc2n1[C@@H]1O[C@H](CN(C)CC(N)=O)[C@@H](O)[C@H]1O.O=S(=O)(O)O` [Compound 13f, 5′-[(Carboxamidomethyl)methylamino]-5′-deoxy-8-methyladenosine sulfate (1.45:1 salt)], the “inhibition” value is given as below 5% inhibition at 100 μM.
For `CNCCNC[C@H]1O[C@@H](n2cnc3c(N)ncnc32)[C@H](O)[C@@H]1O` [Compound 15c, 5′-deoxy-5′-(2-methylaminoethylamino)adenosine], the inhibition at 100 µM was below 5%.
Take `CN(CCON)C[C@H]1O[C@@H](n2c(-c3ccccc3)nc3c(N)ncnc32)[C@H](O)[C@@H]1O.CN(CCON)C[C@H]1O[C@@H](n2c(-c3ccccc3)nc3c(N)ncnc32)[C@H](O)[C@@H]1O.O=S(=O)(O)O` [Compound 7c, 5′-[(2-Aminooxyethyl)methylamino]-5′-deoxy-8-phenyladenosine sulfate (2:1 salt)]: the “inhibition” value is below 5% inhibition at 100 μM.
Same read-out and setting: next, `CNCCCNC[C@H]1O[C@@H](n2c(-c3ccccc3)nc3c(N)ncnc32)[C@H](O)[C@@H]1O.O=S(=O)(O)O` [Compound 15b, 5′-deoxy-5′-(3-methylaminopropylamino)-8-phenyladenosine sulfate (1.7:1 salt)]: below 5% inhibition at 100 μM.

The experiment is the same for the next values; noted with them: at least 5 concentrations; curve fit of inhibitor concentration versus % inhibition of hAdoMetDC.
For the compound `CCc1nc2c(N)ncnc2n1[C@@H]1O[C@H](CN(C)CCCN)[C@@H](O)[C@H]1O` [Compound 17d, 5′-[(3-Aminopropyl)methylamino]-5′-deoxy-8-ethyladenosine sulfate (2.5:1 salt)], the IC50 was determined as 420 µM.
As for `CN(C)C[C@H]1O[C@@H](n2cnc3c(N)ncnc32)[C@H](O)[C@@H]1O` [Compound 19b, 5′-Deoxy-5′-(N,N-dimethylamino)adenosine], the IC50 was 9 µM.
The same measure, in the same setting: next, `Cc1nc2c(N)ncnc2n1[C@@H]1O[C@H](CN(C)CCN)[C@@H](O)[C@H]1O` [Compound 14f, 5′-[(2-Aminoethyl)methylamino]-5′-deoxy-8-methyladenosine]: 88 µM; `CN(CCC(=O)NN)C[C@H]1O[C@@H](n2cnc3c(N)ncnc32)[C@H](O)[C@@H]1O` [Compound 13l, 5′-Deoxy-5′-[(2-hydrazinocarbonylethyl)methylamino]-adenosine sulfate (2:1 salt)]: 1.5 µM.
`CNc1nc2c(N)ncnc2n1[C@@H]1O[C@H](CN(C)CCON)[C@@H](O)[C@H]1O` [Compound 7b, 5′-[(2-Aminooxyethyl)methylamino]-5′-deoxy-8-(methylamino)adenosine sulfate (2.1:1 salt)] yielded an IC50 of 0.086 µM.
Regarding `CNc1nc2c(N)ncnc2n1[C@@H]1O[C@H](CN(C)CCCCON)[C@@H](O)[C@H]1O` [Compound 9a, 5′-[(4-Aminooxybutyl)methylamino]-5′-deoxy-8-(methylamino)adenosine sulfate (0.4:1 salt)], the IC50 is 0.049 µM.
On the same count and under the same terms, next, `CN(CCC(N)=O)C[C@H]1O[C@@H](n2cnc3c(N)ncnc32)[C@H](O)[C@@H]1O` [Compound 13j, 5′-[(2-Carboxamidoethyl)methylamino]-5′-deoxyadenosine sulfate (1.9:1 salt)]: 7 µM; `CN(CCCN)C[C@H]1O[C@@H](n2cnc3c(N)ncnc32)[C@H](O)[C@@H]1O` [Compound 14d, 5′-[(3-Aminopropyl)methylamino]-5′-deoxyadenosine sulfate (2:1 salt)]: 500 µM.
On to `Cc1nc2c(N)ncnc2n1[C@@H]1O[C@H](CN(C)CC(=O)NN)[C@@H](O)[C@H]1O` [Compound 13m, 5′-Deoxy-5′-[(hydrazinocarbonylmethyl)methylamino]-8-methyladenosine], for which 31 µM corresponded to half-maximal inhibition (IC50).
Same read-out and setting: next, `CNc1nc2c(N)ncnc2n1[C@@H]1O[C@H](CN(C)CCCN)[C@@H](O)[C@H]1O` [Compound 14a, 5′-[(3-Aminopropyl)methylamino]-5′-deoxy-8-(methylamino)adenosine sulfate (2.4:1 salt)]: 440 µM; `CN(CCC(=N)NO)C[C@H]1O[C@@H](n2cnc3c(N)ncnc32)[C@H](O)[C@@H]1O` [Compound 18c, 5′-Deoxy-5′-[(2-hydroxyamidinoethyl)methylamino]adenosine]: 157 µM; `Cc1nc2c(N)ncnc2n1[C@@H]1O[C@H](CN(C)CCCCON)[C@@H](O)[C@H]1O` [Compound 9d, 5′-[(4-Aminooxybutyl)methylamino]-5′-deoxy-8-methyladenosine sulfate (1.9:1 salt)]: 0.005 µM.
For `CN(CCCCON)C[C@H]1O[C@@H](n2cnc3c(N)ncnc32)[C@H](O)[C@@H]1O` [Compound 9f, 5′-[(4-Aminooxybutyl)methylamino]-5′-deoxyadenosine sulfate (2:1 salt)], half-maximal inhibition (IC50) required 0.018 µM.
The same measure, in the same setting: next, `CCc1nc2c(N)ncnc2n1[C@@H]1O[C@H](CN(C)CCC(N)=O)[C@@H](O)[C@H]1O` [Compound 13e, 5′-[(2-Carboxamidoethyl)methyamino]-5′-deoxy-8-ethyladenosine sulfate (1.1:1 salt)]: 4 µM; `CN(CCCCON)C[C@H]1O[C@@H](n2c(=O)[nH]c3c(N)ncnc32)[C@H](O)[C@@H]1O` [Compound 9c, 5′-[(4-Aminooxybutyl)methylamino]-5′-deoxy-8-oxoadenosine sulfate (1.9:1 salt)]: 0.011 µM.
On the same count and under the same terms, next, `Cc1nc2c(N)ncnc2n1[C@@H]1O[C@H](CN(C)CCC(=O)NN)[C@@H](O)[C@H]1O` [Compound 13k, 5′-Deoxy-5′-[(2-hydrazinocarbonylethyl)methylamino]-8-methyladenosine sulfate (2:1 salt)]: 0.17 µM.

Still in this experiment, the particulars now being: versus 8-unsubstituted parent compound.
Regarding `Cc1nc2c(N)ncnc2n1[C@@H]1O[C@H](CN(C)CCCCON)[C@@H](O)[C@H]1O` [Compound 9d, 5′-[(4-Aminooxybutyl)methylamino]-5′-deoxy-8-methyladenosine sulfate (1.9:1 salt)], the “reduction in the IC50 value when an 8-methyl substituent was added to the adenine ring” value is reported as 3.4 fold.

The same experiment, now with this note: versus un-substituted parent compound.
As for `Cc1nc2c(N)ncnc2n1[C@@H]1O[C@H](CN(C)CCON)[C@@H](O)[C@H]1O` [Compound 7a, 5′-[(2-Aminooxyethyl)methylamino]-5′-deoxy-8-methyladenosine sulfate (2.2:1 salt)], the “increase in potency when an adenine 8-methyl substituent was added” value was found to be 8 fold.

The next experiment has as its target T2, AdoMetDC (Homo sapiens, UniProt P17707).
T2 sequence (P17707 1-334): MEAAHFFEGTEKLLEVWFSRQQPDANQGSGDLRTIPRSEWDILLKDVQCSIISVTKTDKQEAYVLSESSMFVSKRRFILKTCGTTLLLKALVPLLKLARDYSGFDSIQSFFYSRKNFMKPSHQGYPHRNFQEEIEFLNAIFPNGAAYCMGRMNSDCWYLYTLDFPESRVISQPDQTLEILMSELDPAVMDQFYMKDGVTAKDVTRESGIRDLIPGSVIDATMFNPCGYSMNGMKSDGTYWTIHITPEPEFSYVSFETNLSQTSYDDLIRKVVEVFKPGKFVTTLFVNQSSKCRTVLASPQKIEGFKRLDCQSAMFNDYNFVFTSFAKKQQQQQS
Assay: not given
To be noted: previously reported; cited from earlier work.
`C[S+](C)C[C@H]1O[C@@H](n2cnc3c(N)ncnc32)[C@H](O)[C@@H]1O` [Compound 21d, 5′-Deoxy-5′-dimethylsulfonioadenosine chloride]: the Ki entry is “in the μM range”.
